“And” between values parts separate entries of the source, which are not always exact repeats. Equal entries are not always repeated.
Experiments:
[1] = tested on: chorioallantoic membrane (CAM); assay: Chick chorioallantoic membrane (CAM) angiogenesis assay; assay type: in vivo, chicken; details: 50 ng spotted on Thermanox coverslip, two days
Experimental: Embryonated chicken eggs were incubated blunt-end up in a 37° C. incubator. At embryonal day 6, the top of the egg was cracked and removed using tweezers to create a 1.5 cm diameter opening. The inner shell membrane was removed, exposing the CAM. A 20 μL PEG hydrogel was then placed onto the CAM. As controls, 50 ng bFGF or 50 ng S1P were spotted onto small pieces of Thermanox coverslips (Nunc), air dried and placed onto the CAM. The eggs were sealed with parafilm and returned to the incubator. After two days of incubation, the eggs were reopened and the degree of angiogenesis was visually assessed.

HUVEC [2] = assay: Time-lapse microscopy of endothelial cell migration on PEG-OVS/albumin/RGD hydrogels; assay type: cell-based, human
Experimental: Time-lapse microscopy was used to quantify endothelial cell migration speeds on PEGOVS/albumin hydrogels containing RGD peptide and preloaded with S1P. RGD peptide was added to the PEG hydrogels to promote endothelial cell adhesion and spreading on the materials. PEG-OVS (3.4 mg in 20 μL) was reacted for 30 min with acetyl-GCGYGRGDSPG-NH2 peptide [SEQ ID NO. 5], to attach the peptide to 1/20 of the vinyl sulfone groups (2.78 mM RGD peptide in the final hydrogel). The PEG hydrogels were crosslinked by reacting PEG-OVS with albumin (5.2 mg in 30 μL) premixed with S1P (5 nmol) to give a final concentration of 100 μM S1P within the crosslinked hydrogel. The resulting solution (50 μL) was pipetted into a 24-well plate and incubated at 37° C. for 24 h to allow crosslinking. HUVEC from passage 5-7 were seeded onto the gels at a concentration of 1000 cells/cm^2. After allowing the cells to spread for 6 h in complete growth medium, HEPES-buffered low serum medium (MCDB 131 with 0.1% FBS, 1% ABAM, […] HEPES, pH 7.4) containing 0.4% FAF-BSA was added to the cells. The cells were tracked using time-lapse microscopy for 12 h, recording images every two minutes. Individual cell migration speeds were analyzed manually using ImageJ to trace the path of each cell over time. […]

[3] = tested on: Human aortic endothelial cells; assay: Single cell tracking on RGD/PEG-OVS/albumin hydrogels under fluid shear stress; assay type: cell-based; details: for endothelial cell migration speed: 100 nM S1P
Experimental: Human aortic endothelial cells seeded onto RGD/PEG-OVS/albumin hydrogels at 1000-2000 cells/cm^2 were tracked under 20 dynes/cm^2 fluid shear stress in HEPES-buffered low serum medium (HEPES-LSM; MCDB 131 with 0.1% FBS, 1% ABAM, […] HEPES, pH 7.4) containing 0.4% FAF-BSA for 12 h.
Time lapse microscopy images were obtained every 2 min for 12 h of endothelial cell migration on the surface of RGD containing PEG hydrogels. The percent of cells remaining on the gels during the course of the experiment was recorded for each RGD concentration. The projected cell areas of all cells were determined by manually outlining the cells after 3 h under 20 dyne/cm^2 shear stress. Single endothelial cells were manually tracked for 12 h to obtain XY-coordinate data for the center of each cell. Coordinate data from every six minutes (Δt=6 min) for all cells in each experiment were saved as variables for analysis in MATLAB (The MathWorks, Natick, Mass.). At each time point i, ti=iΔt, the mean squared displacement was calculated using the overlapping interval method. The speed of each individual was calculated by dividing the root mean-square displacement for a single time interval by the tracking interval (6 min). Each cell's persistence time was determined by fitting the persistent random walk model given by Equation 1: <d^2(t)>=2S^2P[t−P(1−e^−t/P)] [1] using the calculated speed by nonlinear least squares regression analysis as previously described (Dunn 1983; Othmer, Dunbar and Alt 1988; Harms et al. 2005). Speed simply represents the total path length of a cell over time. Persistence time represents the time period between changes in the direction of movement of more than 60°. Path length is calculated as the product of speed and persistence time. Cell dispersion is the product of speed squared and persistence time. Cell areas were obtained by manually tracing cells. All data was analyzed by ANOVA Scheffe post hoc. Endothelial Response to Linear RGD Concentration—Cell Attachment Strength

HUVEC [4] = assay: Scrape wound migration assay in platelet poor plasma or low serum medium; assay type: cell-based, human; details: for number of cells in the scrape wound versus plasma alone: no flow
Experimental: The plasma was passed through a 0.22 μm PVDF syringe filter. Plasma was aliquoted and stored at −20° C. VEGF concentration was measured with a sandwich ELISA kit (Quantikine Human VEGF kit, R&D Systems, Minneapolis, Minn.). The concentration of VEGF was measured in plasma samples from three different donors.
After rinsing with D-PBS, LSM or plasma containing the appropriate stimulants were added to the cells. […] Cells were manually counted using ImagePro Express software (Media Cybernetics, Silver Spring, Md.).
A 2.54 cm diameter Teflon disk was mounted onto the spindle of each motor so that the bottom of the disk was 0.5 cm above the cell monolayer. A total volume of 6 mL of medium was added per well. The motors were driven using a 1.5 V power source resulting in a rotation rate of 150±5 rad/s. […] Cell densities were counted at four locations, each between 0.8 and 1.2 cm away from the center of the well.

HAEC = assay: Individual cell migration of HAEC in plasma; assay type: cell-based, human
Experimental: Individual Cell Migration of HAEC—Passage 6 HAEC were subcultured and incubated in growth medium for 3 days and then were serum-starved for 12 h. HAEC cell densities were less than 100 cell/mm^2 so that cell-cell contacts were unlikely during the duration of the experiment. Any cell that contacted another cell was excluded from data analysis. Plasma was buffered with 20 mM HEPES, pH 7.4, and added to the well. Time-lapse microscopy was used to track the cells every 4 min for 12 h with a 10× objective. The migration speed of individual cells was analyzed using ImageJ software (NIH).

S1P1 = S1P1 (Homo sapiens, UniProt P21453); details: Lee et al., Science (1998); read-out: KD for S1P/S1P1 binding; cited from earlier work
Sequence of S1P1 (P21453 whole entry, species assumed): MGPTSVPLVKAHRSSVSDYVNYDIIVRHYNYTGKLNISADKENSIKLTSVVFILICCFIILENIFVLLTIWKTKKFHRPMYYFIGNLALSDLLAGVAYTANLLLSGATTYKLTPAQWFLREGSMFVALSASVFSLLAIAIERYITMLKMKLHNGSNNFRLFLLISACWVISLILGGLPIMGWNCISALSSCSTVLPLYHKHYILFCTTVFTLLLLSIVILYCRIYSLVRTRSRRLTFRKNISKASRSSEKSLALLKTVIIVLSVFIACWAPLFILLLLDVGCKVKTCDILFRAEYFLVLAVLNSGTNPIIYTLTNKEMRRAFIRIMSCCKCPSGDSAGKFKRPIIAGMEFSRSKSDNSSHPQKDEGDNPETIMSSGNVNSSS

plasma lipoproteins = details: in blood; cited from earlier work
S1P1 mRNA = assay: Quantitative real time RT-PCR of S1P1 mRNA; assay type: cell-based, human; details: 10 ng/mL VEGF; HUVEC cultured in plasma; 24 h
Source text: Quantitative Real Time Reverse Transcription PCR-In experiments with fluid flow, cell lysates were harvested only in the region of relevant shear stress (0.8-1.2 cm from the center of the well). For conditions without fluid flow, cell lysates were collected from the entire well. Total cell RNA was isolated using an RNeasy kit (Qiagen). Amplification of an 81-bp fragment of S1P1 using primers (5'-[…] NO:7] and 5'-[…] Inc, Coralville, Iowa) and probe (S1P1 Probe: [NT] ID NO:9], IDT Inc) was performed using the Quantitect qRT-PCR kit (Qiagen). The amount of S1P1 or β-Actin RNA was quantified by comparing data to a standard curve generated using the Taqman human endogenous β-actin control kit (Applied Biosystems). The β-actin control kit contains 333 copies of β-actin DNA per ng of total RNA. Knockdown of S1P1 with siRNA-Passage 3 HUVEC at 30-50% confluence were transfected with 100 nM siRNA targeting S1P1 (Silencer validated siRNA against S1P1, Ambion, Austin, Tex.) in antibiotic-free growth medium using Lipofectamine-2000 (Invitrogen). […] At 48 h, cells were incubated with LSM for 12 h. A negative control (Ambion, Silencer Negative Control #2) was used to test for non-specific effects on gene expression or cell survival. Quantitative real-time RT-PCR was used to determine the extent of S1P1 receptor mRNA knockdown 48 h after transfection.

[5] = S1P at 0.69 mM cyclic RGD vs 0.52 and 1.38 mM cyclic RGD without S1P
[6] = addition of 100 nM S1P, linear RGD
[7] = S1P 100 nM or VEGF 10 ng/mL added to plasma

Molecule: CCCCCCCCCCCCC/C=C/[C@@H](O)[C@@H](N)COP(=O)(O)O [S1P, Sphingosine 1-phosphate]
- angiogenic response [1]: strong angiogenic responses
- mean migration speed of HUVEC (HUVEC [2]; S1P delivered from preloaded PEG/albumin/RGD hydrogel (100 μM S1P in gel), without S1P 19.2±10.1): 43.8±15.7 μm/h
- mean migration speed of HUVEC (HUVEC [2]; culture medium containing 100 nM S1P, on PEG/albumin/RGD hydrogel): 30.2±11.8 μm/h
- persistence time ([3]; 100 nM S1P compared to no S1P, cyclic RGD): not significantly changed
- endothelial cell migration speed ([3]; cyclic RGD hydrogels, particularly higher concentrations): significant increase in endothelial cell migration speed
- endothelial cell migration speed ([3]; highest linear RGD concentrations): more than doubled
- projected cell area ([3]; S1P addition, cyclic RGD, after 3 h of shear stress): No clear effect
- cell dispersion [3, 5]: statistically greater
- path length [3, 5]: statistically greater
- cell dispersion [3, 6]: not significant
- path length [3, 6]: not significant
- persistence time [3, 6]: not clearly affected
- cell densities outside the scrape wound area between S1P levels (HUVEC [4]; 0, 200, 500, and 1000 nM exogenous S1P at each time point): no significant differences
- number of endothelial cells in a scrape wound versus LSM alone (HUVEC [4]; 100 nM S1P in LSM, 24 h): increased the number of endothelial cells
- number of cells in the scrape wound (HUVEC [4]; 100 nM S1P in plasma, fluid flow): did not significantly increase
- number of cells in the scrape wound versus plasma alone (HUVEC [4]; 200 nM and 500 nM exogenous S1P, plasma, 24 h): statistically different from plasma alone
- migration into the wound area versus plasma alone (HUVEC [4]; 200 nM exogenous S1P, fluid flow, 48 h): significantly different from plasma alone
- number of cells in the scrape wound versus plasma alone (HUVEC [4]; 200 nM exogenous S1P, plasma, 48 h): significantly higher than plasma alone
- cell density outside the scrape wound at 48 h versus 0 and 24 h (HUVEC [4]; 1000 nM exogenous S1P in static culture): significantly lower cell density
- number of cells in the wound area versus plasma alone (HUVEC [4]; 200, 500, or 1000 nM S1P in plasma, fluid flow, 24 h): significant increases
- number of cells in the scrape wound versus plasma alone (HUVEC [4]; [7]): no differences
- exogenous S1P concentration with the highest number of cells within the scrape wound (HUVEC [4]; plasma, without fluid flow, 100, 200, 500, 1000 nM tested): 200 nM
- mean cell speed versus plasma alone (HAEC; 100 nM S1P added to static plasma): no difference
- mean cell speed versus plasma alone (HAEC; 500 and 1000 nM exogenous S1P): did not lead to a significant increase
- mean cell speed versus plasma alone (HAEC; S1P in plasma increased by 200 nM, p=0.023): significantly increased
- Kd (S1P1): ~8 nM and 8 nM
- circulating S1P bound by HDL (plasma lipoproteins): about 55%
- circulating S1P bound by other lipoproteins (plasma lipoproteins): about 10%

Molecule: VEGF
- number of cells in the scrape wound versus plasma alone (HUVEC [4]; [7]): no differences
- S1P1 mRNA concentration versus plasma alone (S1P1 mRNA): statistically significant increase
